Measured values from US20110081362A1, “TREATMENT OF CANCER” (THE BRIGHAM AND WOMEN'S HOSPITAL, INC., priority 2008, published 2011).
Entries after “also recorded” stand apart in the source; their conditions may differ.

Key:
[1] = test system: HMECs, HCT116, HCC1954 and DLD-1 cells; test: Cell viability after nutlin-3 treatment; assay type: cell-based, human; details: 4 days of nutlin-3 treatment; HMECs and HCT116 p53 wild-type, HCC1954 and DLD-1 p53 mutant
Protocol: Cell viability is reflective of their p53 status (HMECs and HCT116 cells, p53 wild-type; HCC1954 and DLD-1 cells, p53 mutant). Cell viability was measured after 4 days of nutlin-3 treatment (*, P<0.05). ctrl, control.
Cells were infected in triplicate in 96-well or 24-well plates with retroviruses of individual shRNAs as described above, and the media was replaced 24 h after infection. On days 2, 6, or 9 post-infection, cell viability was measured using CellTiter-Glo reagent (Promega) per manufacturer's instruction on a Wallac Victor2 plate reader (Perkin Elmer).

MDM2 and p21 = test: Western blot of MDM2 and p21 in response to nutlin-3; assay type: cell-based, human; details: 2 days post treatment
Source text: D. Top, Western blots of MDM2 protein knockdown in HCC1954 cells and HMECs by MDM2 shRNAs (4 days post-infection) as indicated in FIG. 4E.
The following primary and secondary antibodies were used for immunoblotting with the indicated dilutions: rabbit anti-Rbx1 and mouse anti-PRPS2 (1:500, Abcam), rabbit anti-MYPT1 (PPP1R12A gene product, 1:500, Upstate), mouse anti-tubulin and rabbit anti-GAPDH (1:2000, Sigma), mouse anti MDM2 (1:500, Santa Cruz), rabbit anti-BUB1 (1:500, Bethyl), mouse anti-p53 DO-1 and mouse anti-p21 (1:500, Calbiochem), goat anti-rabbit-HRP (1:5000, Jackson ImmunoResearch), and goat anti-mouse-HRP (1:5000, Jackson ImmunoResearch). Positive and negative siRNA controls, including siLUC, siTOX, siGLO duplexes and a PLK1 SMARTpool, were purchased from Dharmacon.

## COc1ccc(C2=N[C@@H](c3ccc(Cl)cc3)[C@@H](c3ccc(Cl)cc3)N2C(=O)N2CCNC(=O)C2)c(OC(C)C)c1 [nutlin-3]
[1]
  Cell viability, sensitivity to nutlin-3: recapitulating the sensitivity of these cells to MDM2 inactivation; also recorded: Differential sensitivity of the four cell lines
MDM2 and p21
  MDM2 and p21 protein induction: MDM2 and p21 induction
